Measurements: patent US20260216198A1, “GPR35 MODULATORS” (ThirtyFiveBio Limited, priority 2023, published 2026)
pIC50: −log10 of the molar value.

Target: T1, GPR35 (Homo sapiens, UniProt Q9HC97)
T1 construct: expressed in transfected cells; host or cells: CHO-K1 cells co-expressing mitochondrial aequorin and Gα16
Experiment: cellular GPR35 phospho-ERK HTRF assay (inhibition of lodoxamide-induced phospho-ERK signal)
Type: cell-based
Conditions: GPR35-CHO-K1-mt aequorin-Gα16 cell line; agonist lodoxamide at EC80; read-out: Activity Group (IC50, inhibition of GPR35 agonist-induced phospho-ERK signal)
Source text: (§1) The functional GPR35 assay as described in the accompanying examples measures the ability of GPR35 modulators to inhibit a GPR35 agonist-induced phospho-ERK signal. This is expressed as the concentration of modulator required to reduce the phospho-ERK signal by 50 percent, i.e. the IC50; the signal window being defined as the difference between agonist plus modulator vehicle (no modulator) and agonist vehicle (no agonist) controls.
as §1, with “functional” for “functional GPR35”, “assay” for “assay as”, “described” for “described in the accompanying examples”
This assay is a cellular GPR35 phospho-ERK homogeneous time resolved fluorescence (HTRF) assay using the GPR35-CHO-K1-mt aequorin-Gα16 cell line. Upon activation of GPR35 with the agonist lodoxamide at EC80 concentration, ERK 1/2 is phosphorylated, and after lysis of the cell membrane, phospho-ERK1/2 (Thr202/Tyr204) is detected in a sandwich assay using two different specific antibodies, one labelled with Eu^3+-cryptate (donor) and the second with d2 (acceptor). When the dyes are in proximity, the excitation of the donor with a light source (laser or flash lamp) triggers a Fluorescence Resonance Energy Transfer (FRET) towards the acceptor, resulting in specific acceptor fluorescence (at 665 nm). The specific signal is directly proportional to the amount of phospho-ERK1/2 (Thr202/Tyr204) in the sample. Compounds that interfere with the levels of phospho-ERK1/2 (Thr202/Tyr204) will result in a low HTRF signal.

T1 sequence (Q9HC97 whole entry): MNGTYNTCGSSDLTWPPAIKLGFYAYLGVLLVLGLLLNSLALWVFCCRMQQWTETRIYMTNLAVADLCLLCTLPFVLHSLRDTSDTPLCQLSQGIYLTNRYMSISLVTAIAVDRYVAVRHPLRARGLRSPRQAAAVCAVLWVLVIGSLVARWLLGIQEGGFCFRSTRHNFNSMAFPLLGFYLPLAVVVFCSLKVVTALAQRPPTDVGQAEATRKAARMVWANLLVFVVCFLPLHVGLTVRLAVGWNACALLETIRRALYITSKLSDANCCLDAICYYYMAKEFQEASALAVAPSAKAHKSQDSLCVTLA

pIC50	Structure (SMILES)
5.00 to 6.00	COc1cccc(S(=O)(=O)Cc2ccc(NC(=O)c3cccc(-c4cnc(C)c(C(=O)O)c4)c3)cc2)c1 [Example 100, 5-[3-[[4-[(3-Methoxyphenyl)sulfonylmethyl]phenyl]carbamoyl]phenyl]-2-methyl-pyridine-3-carboxylic acid]
5.00 to 6.00	Cc1ncc(-c2ccc(F)c(C(=O)Nc3ccc(OCC4CC4)cc3)c2)cc1C(=O)O [Example 84, 5-[3-[[4-(Cyclopropylmethoxy)phenyl]carbamoyl]-4-fluoro-phenyl]-2-methyl-pyridine-3-carboxylic acid]
> 6.00	COCCNc1ncc(-c2cccc(C(=O)Nc3ccc(OCCc4ccccc4)cc3)c2)cc1C(=O)O [Example 37, 2-((2-Methoxyethyl)amino)-5-(3-((4-phenethoxyphenyl)carbamoyl)phenyl)nicotinic acid]
> 6.00	Nc1ccc(-c2cccc(C(=O)Nc3ccc(OCCc4ccccc4)cc3)c2)cc1C(=O)O [Example 16, 4-amino-3′-((4-phenethoxyphenyl)carbamoyl)-[1,1′-biphenyl]-3-carboxylic acid]
5.00 to 6.00	Cc1ncc(-c2cc(C(=O)Nc3ccc(OCCc4ccccc4)cc3)cnn2)cc1C(=O)O [Example 71, 2-Methyl-5-[5-[[4-(2-phenylethoxy)phenyl]carbamoyl]pyridazin-3-yl]pyridine-3-carboxylic acid]
> 6.00	Cc1ncc(-c2cc(C(=O)Nc3ccc(OCCc4ccccc4)cc3)ncn2)cc1C(=O)O [Example 69, 2-Methyl-5-[6-[[4-(2-phenylethoxy)phenyl]carbamoyl]pyrimidin-4-yl]pyridine-3-carboxylic acid]
> 6.00	Cc1ccc(C(=O)Nc2ccc(COCc3ccccc3)cc2)cc1-c1cnc(C)c(C(=O)O)c1 [Example 83, 5-[5-[[4-(Benzyloxymethyl)phenyl]carbamoyl]-2-methyl-phenyl]-2-methyl-pyridine-3-carboxylic acid]
5.00 to 6.00	Cc1ncc(-c2cccc(C(=O)Nc3ccc(CS(=O)(=O)c4cccc(Cl)c4)cc3)c2)cc1C(=O)O [Example 97, 5-[3-[[4-[(3-Chlorophenyl)sulfonylmethyl]phenyl]carbamoyl]phenyl]-2-methyl-pyridine-3-carboxylic acid]
> 6.00	CN(C)c1ncc(-c2cccc(C(=O)Nc3ccc(OCCc4ccccc4)cc3)c2)cc1C(=O)O [Example 35, 2-(Dimethylamino)-5-(3-((4-phenethoxyphenyl)carbamoyl)phenyl)nicotinic acid]
> 6.00	Cc1ncc(-c2ccc(F)c(C(=O)Nc3ccc(OC(C)C4CC4)c(F)c3)c2)cc1C(=O)O (centres unmarked) [Example 92, 5-[3-[[4-(1-Cyclopropylethoxy)-3-fluoro-phenyl]carbamoyl]-4-fluoro-phenyl]-2-methyl-pyridine-3-carboxylic acid]
> 6.00	COc1cccc(COCc2ccc(NC(=O)c3cccc(-c4cnc(C)c(C(=O)O)c4)c3)cc2F)c1 [Example 64, 5-[3-[[3-Fluoro-4-[(3-methoxyphenyl)methoxymethyl]phenyl]carbamoyl]phenyl]-2-methyl-pyridine-3-carboxylic acid]
5.00 to 6.00	Cc1ncc(-c2cccc(C(=O)Nc3ccc(CS(=O)(=O)c4ccccc4Cl)cc3)c2)cc1C(=O)O [Example 98, 5-[3-[[4-[(2-Chlorophenyl)sulfonylmethyl]phenyl]carbamoyl]phenyl]-2-methyl-pyridine-3-carboxylic acid]
> 6.00	COc1ccc(C(=O)Nc2ccc(COCc3ccccc3)cc2)cc1-c1cnc(C)c(C(=O)O)c1 [Example 81, 5-[5-[[4-(Benzyloxymethyl)phenyl]carbamoyl]-2-methoxy-phenyl]-2-methyl-pyridine-3-carboxylic acid]
> 6.00	O=C(O)c1cncc(-c2cccc(C(=O)Nc3ccc(OCCc4ccccc4)cc3)c2)c1 [Example 5, 5-(3-((4-Phenethoxyphenyl)carbamoyl)phenyl)nicotinic acid]
> 6.00	O=C(Nc1ccc(OCCc2ccccc2)cc1)c1cccc(-c2ccc(O)c(C(=O)O)c2)c1 [Example 1, 4-Hydroxy-3′-((4-phenethoxyphenyl)carbamoyl)-[1,1′-biphenyl]-3-carboxylic acid]
5.00 to 6.00	COc1cc(COCc2ccccc2)ccc1NC(=O)c1cccc(-c2cnc(C)c(C(=O)O)c2)c1 [Example 61, 5-[3-[[4-(Benzyloxymethyl)-2-methoxy-phenyl]carbamoyl]phenyl]-2-methyl-pyridine-3-carboxylic acid]

pIC50	Structure (SMILES)
> 6.00	Cc1ncc(-c2ccc(F)c(C(=O)Nc3ccc(COCc4ccccc4)c(F)c3)c2)cc1C(=O)O [Example 90, 5-[3-[[4-(Benzyloxymethyl)-3-fluoro-phenyl]carbamoyl]-4-fluoro-phenyl]-2-methyl-pyridine-3-carboxylic acid]
5.00 to 6.00	Cc1ncc(-c2ccc(F)c(C(=O)Nc3ccc(COCc4ccccc4)cc3)c2F)cc1C(=O)O [Example 87, 5-[3-[[4-(Benzyloxymethyl)phenyl]carbamoyl]-2,4-difluoro-phenyl]-2-methyl-pyridine-3-carboxylic acid]
5.00 to 6.00	Cc1ncc(-c2cccc(C(=O)Nc3ccc(COCC4CC4)cc3)c2)cc1C(=O)O [Example 44, 5-(3-((4-((Cyclopropylmethoxy)methyl)phenyl)carbamoyl)phenyl)-2-methylnicotinic acid]
5.00 to 6.00	Cc1ccc(S(=O)(=O)Cc2ccc(NC(=O)c3cccc(-c4cnc(C)c(C(=O)O)c4)c3)cc2)cn1 [Example 101, 2-Methyl-5-[3-[[4-[(6-methyl-3-pyridyl)sulfonylmethyl]phenyl]carbamoyl]phenyl]pyridine-3-carboxylic acid]
> 6.00	Cc1ncc(-c2cc(C(=O)Nc3ccc(COCc4ccccc4)c(F)c3)ccn2)cc1C(=O)O [Example 77, 5-[4-[[4-(Benzyloxymethyl)-3-fluoro-phenyl]carbamoyl]-2-pyridyl]-2-methyl-pyridine-3-carboxylic acid]
5.00 to 6.00	Cc1ncc(-c2cccc(C(=O)Nc3ccc(COCc4ccccn4)c(F)c3)c2)cc1C(=O)O [Example 62, 5-[3-[[3-Fluoro-4-(2-pyridylmethoxymethyl)phenyl]carbamoyl]phenyl]-2-methyl-pyridine-3-carboxylic acid]
> 6.00	Cc1cc(C(=O)Nc2ccc(COCc3ccccc3)cc2)cc(-c2cnc(C)c(C(=O)O)c2)n1 [Example 75, 5-[4-[[4-(Benzyloxymethyl)phenyl]carbamoyl]-6-methyl-2-pyridyl]-2-methyl-pyridine-3-carboxylic acid]
> 6.00	O=C(Nc1ccc(OCCc2ccccc2)cc1)c1cccc(-c2cncc(C(=O)O)n2)c1 [Example 14, 6-(3-((4-Phenethoxyphenyl)carbamoyl)phenyl)pyrazine-2-carboxylic acid]
> 6.00	Cc1ncc(-c2cccc(C(=O)Nc3cnn(CCc4ccccc4)c3)c2)cc1C(=O)O [Example 57, 2-Methyl-5-[3-[[1-(2-phenylethyl)pyrazol-4-yl]carbamoyl]phenyl]pyridine-3-carboxylic acid]
5.00 to 6.00	Cc1ncc(-c2nc(C(=O)Nc3ccc(COCc4ccccc4)cc3)cs2)cc1C(=O)O [Example 50, 5-(4-((4-((Benzyloxy)methyl)phenyl)carbamoyl)thiazol-2-yl)-2-methylnicotinic acid]
5.00 to 6.00	CSc1ncc(C(=O)Nc2ccc(OCCc3ccccc3)cc2)cc1-c1cnc(C)c(C(=O)O)c1 [Example 94, 2-Methyl-5-[2-methylsulfanyl-5-[[4-(2-phenylethoxy)phenyl]carbamoyl]-3-pyridyl]pyridine-3-carboxylic acid]
5.00 to 6.00	Cc1c(C(=O)O)cncc1-c1cccc(C(=O)Nc2ccc(OCCc3ccccc3)cc2)c1 [Example 27, 4-Methyl-5-(3-((4-phenethoxyphenyl)carbamoyl)phenyl)nicotinic acid]
> 6.00	Cc1ncc(-c2cccc(C(=O)Nc3ccc(COC(C)c4ccccc4)cc3)c2)cc1C(=O)O (centres unmarked) [Example 59, 2-Methyl-5-[3-[[4-(1-phenylethoxymethyl)phenyl]carbamoyl]phenyl]pyridine-3-carboxylic acid]
> 6.00	Cc1ccc(S(=O)(=O)Cc2ccc(NC(=O)c3cccc(-c4cnc(C)c(C(=O)O)c4)c3)cc2)cc1 [Example 58, 2-Methyl-5-[3-[[4-(p-tolylsulfonylmethyl)phenyl]carbamoyl]phenyl]pyridine-3-carboxylic acid]
5.00 to 6.00	Cc1ncc(-c2cccc(C(=O)Nc3ccc(CS(=O)(=O)Cc4ccccc4)cc3)c2)cc1C(=O)O [Example 43, 5-(3-((4-((Benzylsulfonyl)methyl)phenyl)carbamoyl)phenyl)-2-methylnicotinic acid]
5.00 to 6.00	Cc1ncc(-c2cccc(C(=O)Nc3ccc(COCc4ccccc4)cc3)c2F)cc1C(=O)O [Example 86, 5-[3-[[4-(Benzyloxymethyl)phenyl]carbamoyl]-2-fluoro-phenyl]-2-methyl-pyridine-3-carboxylic acid]
